What was measured:
[1] = test system: YAP-TEAD interaction; assay: SK-HEP-1 reporter assay (8x TEAD responsive elements driving NanoLuc luciferase); format: cell-based; conditions: Homo sapiens, SK-HEP1; SK-HEP-1 TEAD-NanoLuc reporter cells, 24 hour incubation, luciferase readout
Description: To identify inhibitors of YAP-TEAD interaction, 8× TEAD responsive elements driving the NanoLuc® luciferase gene were stably integrated into SK-HEP-1 cells (ECACC #: 91091816).
For the assay, cells were treated in duplicates with the test compounds in a 10-point dose, with the top concentration starting at 30 μM (final concentration in assay). After a 24 hour incubation at 37° C., 95% rH, and 5% CO2, a luciferase substrate/lysis reagent mix (NanoGlo™, Promega) was added to the cells, allowing the quantification of cellular luciferase activity.
Cell Media: The cells were cultured in the following media: MEM, +10% FBS, +1× GlutaMAX, +1 mM Sodium-Pyruvate, +100 μM Non-essential amino acids, +0.1 mg/ml Hygromycin. The media used for the assay was: MEM (w/o Phenol Red), +10% FBS, +1× GlutaMAX, +1 mM Sodium-Pyruvate, +100 μM Non-essential amino acids, +0.5% Pen/Strep
(§1) Reagents: The reagents used are listed below:
(§2) Cell culture: The cells were examined using an inverted microscope to check for health and cell density. To dissociate adherent cells, the monolayer of cells was washed once with pre-warmed PBS. After removing the PBS, 3 ml pre-warmed Accutase® was added to a F75 flask, dispersed evenly and the flask was allowed to sit in incubator for ˜4-5 minutes.
(§3) When a single cell suspension was obtained, 7 ml of prewarmed growth media was added and resuspended with the cells. The cell suspension was transferred to a sterile 15 ml conical centrifuge tube, and spun for 5 min at 300×g, RT. The supernatant was discarded and the pellet was resuspended in 10 ml of pre-warmed growth media.
(§4) The total cell count was determined, and 20 μl of the desired cell number was added to each well of a 384 well plate using a Multidrop Combi. The plates were then incubated for 24 hours at 37° C., 95% rH, and 5% CO2.
(§5) Compound treatment: 24 hours after seeding, the cells were treated with compounds.
(§6) A 1:333 dilution of compounds, diluted in DMSO, was made to get a final concentration of 0.3% DMSO per well. To transfer the compounds to the assay plate, 120 nl was shot from Labcyte low dead volume plates to the cell plates containing 20 μl media/well with the ECHO 555 liquid handling system.
(§7) After treatment, the cells were fed with 20 μl fresh pre-warmed assay media using a Multidrop combi.
The assay plates were then incubated for another 24 h at 37° C., 95% rH, and 5% CO2.
Luciferase readout: 24 h after treatment, the plates were taken out of the incubator and were allowed to equilibrate to RT. 30 μl of NanoGlo® reagent was added to the plates in the dark. Plates were shaken for 20 min on a Teleshake (˜1500 rpm) in the dark. The luminescence was then measured using an EnVision microplate reader. The IC50 values were generated using Genedata Screener®.
Experimental data in SK-HEP-1 reporter assay of the compounds shown in Table 1 are shown in Table 2 below and classified in the following groups: […]

[2] = test system: NCI-H226 cells; assay: Viability assay in NCI-H226 (Yap-dependent) cells, CyQUANT; format: cell-based; conditions: Homo sapiens, 96 hour incubation
Description: The ability of YAP-TEAD inhibitors to inhibit tumor cell growth was evaluated using two different cell lines: NCI-H226, which is a YAP dependent cell line, and SW620 cells, where YAP and TAZ were knocked out using CRISPR to generate a YAP independent cell line.
For the assay, cells were treated in duplicates with the test compounds in a 10-point dose, 1:3 dilution steps, with the top concentration starting at 30 μM (final concentration in assay). After a 96 hour incubation at 37° C., 95% rH, and 5% CO2, a cell-permeant DNA-binding dye that stains only healthy cells (CyQUANT®, Promega) was added to the cells, allowing the quantification of cell viability.
Cell Media: The NCI-H226 cells were cultured in the following media: RPMI 1640, +10% FBS, +1× GlutaMAX, +10 mM HEPES, +0.5% Pen/Strep. The SW620-KO cells were cultured in the following media: DMEM/F-12, +10% FBS, +1× GlutaMAX, +10 mM HEPES, +0.5% Pen/Strep.
as §1
as §2, with “health,” for “health and”, “density, etc.” for “density.”, “Accutase” for “Accutase®”
as §3, §4, §5, §6, §7
The assay plates were then incubated for 96 h at 37° C., 95% rH, and 5% CO2.
96h after treatment 30 μl of CyQuant® reagent was added to the assay plates using a Multidrop combi in the dark. The plates were then incubated for 1 hour at 37° C., 95% rH and 5% CO2. Thereafter, the assay plates were removed from the incubator and allowed to equilibrate to RT for 30 min in the dark without lid. Finally, they were measured using an EnVision microplate reader with a FITC bottom read program.
Experimental data in the Viability assay of the compounds shown in Table 1 are shown in Table 3 below and classified in the following groups: […]

Structure (SMILES) | IC50 [1] | IC50 [2]
Cc1ccc2c(c1)c1cc(C(=O)NC(C)CO)ccc1n2-c1ccc(C(F)(F)F)cc1 (stereo not drawn) [Compound 39, N-(1-hydroxypropan-2-yl)-6-methyl-9-[4-(trifluoromethyl)phenyl]-9H-carbazole-3-carboxamide] | 10 to 100 nM | 0.001 to 0.1 µM
Cc1ccc2c(c1)c1cc(C(=O)NCC(C)O)ccc1n2-c1ccc(C(F)(F)F)cc1 (stereo not drawn) [Compound 40, N-(2-hydroxypropyl)-6-methyl-9-[4-(trifluoromethyl)phenyl]-9H-carbazole-3-carboxamide] | 10 to 100 nM | 0.001 to 0.1 µM
Cc1ccc2c(c1)c1cc(C(=O)NC(CO)C(C)C)ccc1n2-c1ccc(C(F)(F)F)cc1 (stereo not drawn) [Compound 41, N-(1-hydroxy-3-methylbutan-2-yl)-6-methyl-9-[4-(trifluoromethyl)phenyl]-9H-carbazole-3-carboxamide] | 100 to 1000 nM | 0.1 to 1 µM
CCC(CO)NC(=O)c1ccc2c(c1)c1cc(C)ccc1n2-c1ccc(C(F)(F)F)cc1 (stereo not drawn) [Compound 42] | 10 to 100 nM | 0.001 to 0.1 µM
Cc1ccc2c(c1)c1cc(C(=O)NCC(C)(C)O)ccc1n2-c1ccc(C(F)(F)F)cc1 [Compound 43, N-(2-hydroxy-2-methylpropyl)-6-methyl-9-[4-(trifluoromethyl)phenyl]-9H-carbazole-3-carboxamide] | 100 to 1000 nM | 0.1 to 1 µM
Cc1ccc2c(c1)c1cc(C(=O)NCCn3ccnc3)ccc1n2-c1ccc(C(F)(F)F)cc1 [Compound 44, 6-Methyl-9-(4-trifluoromethyl-phenyl)-9H-carbazole-3-carboxylic acid (2-imidazol-1-yl-ethyl)-amide] | 100 to 1000 nM | 0.1 to 1 µM
Cc1ccc2c(c1)c1cc(C(=O)NCc3nccn3C)ccc1n2-c1ccc(C(F)(F)F)cc1 [Compound 45] | 100 to 1000 nM | 0.1 to 1 µM
Cc1ccc2c(c1)c1cc(C(=O)N[C@](C)(CO)c3ccccc3)ccc1n2-c1ccc(C(F)(F)F)cc1 [Compound 46, N-[(2S)-1-hydroxy-2-phenylpropan-2-yl]-6-methyl-9-[4-(trifluoromethyl)phenyl]-9H-carbazole-3-carboxamide] | 100 to 1000 nM | 0.1 to 1 µM
CCc1ccc2c(c1)c1cc(C(=O)O)ccc1n2-c1ccc(C(F)(F)F)cc1 [Compound 47, 6-ethyl-9-[4-(trifluoromethyl)phenyl]-9H-carbazole-3-carboxylic acid] | 1 to 10 nM | 0.001 to 0.1 µM
Cc1ccc2c(c1)c1cc(C(N)=O)ccc1n2-c1ccc(C(F)(F)F)cc1 [Compound 48, 6-methyl-9-[4-(trifluoromethyl)phenyl]-9H-carbazole-3-carboxamide] | 10 to 100 nM | 0.1 to 1 µM
Cc1ccc2c(c1)c1cc(C(=O)N3CCC(O)C3)ccc1n2-c1ccc(C(F)(F)F)cc1 (stereo not drawn) [Compound 49, 1-{6-methyl-9-[4-(trifluoromethyl)phenyl]-9H-carbazole-3-carbonyl}pyrrolidin-3-ol] | 100 to 1000 nM | 0.1 to 1 µM
Cc1ccc2c(c1)c1cc(C(=O)N3CCCC(O)C3)ccc1n2-c1ccc(C(F)(F)F)cc1 (stereo not drawn) [Compound 50, 1-{6-methyl-9-[4-(trifluoromethyl)phenyl]-9H-carbazole-3-carbonyl}piperidin-3-ol] | 100 to 1000 nM | 0.1 to 1 µM
Cc1ccc2c(c1)c1cc(C(=O)NCc3ccccn3)ccc1n2-c1ccc(C(F)(F)F)cc1 [Compound 51, 6-methyl-N-[(pyridin-2-yl)methyl]-9-[4-(trifluoromethyl)phenyl]-9H-carbazole-3-carboxamide] | 100 to 1000 nM | 0.1 to 1 µM
Cc1ccc2c(c1)c1cc(C(=O)NCc3cccnc3)ccc1n2-c1ccc(C(F)(F)F)cc1 [Compound 52, 6-methyl-N-[(pyridin-3-yl)methyl]-9-[4-(trifluoromethyl)phenyl]-9H-carbazole-3-carboxamide] | 100 to 1000 nM | 0.001 to 0.1 µM
Cc1ccc2c(c1)c1cc(C(=O)NCc3ccncn3)ccc1n2-c1ccc(C(F)(F)F)cc1 [Compound 53, 6-methyl-N-[(pyrimidin-4-yl)methyl]-9-[4-(trifluoromethyl)phenyl]-9H-carbazole-3-carboxamide] | 10 to 100 nM | 0.001 to 0.1 µM
Cc1ccc2c(c1)c1cc(C(=O)NC3(CO)CCC3)ccc1n2-c1ccc(C(F)(F)F)cc1 [Compound 54, N-[1-(hydroxymethyl)cyclobutyl]-6-methyl-9-[4-(trifluoromethyl)phenyl]-9H-carbazole-3-carboxamide] | 100 to 1000 nM | 0.1 to 1 µM
Cc1ccc2c(c1)c1cc(C(=O)NCC(O)CO)ccc1n2-c1ccc(C(F)(F)F)cc1 (stereo not drawn) [Compound 55, N-(2,3-dihydroxypropyl)-6-methyl-9-[4-(trifluoromethyl)phenyl]-9H-carbazole-3-carboxamide] | 10 to 100 nM | 0.001 to 0.1 µM
Cc1ccc2c(c1)c1cc(C(=O)N[C@@H](CO)C3CCC3)ccc1n2-c1ccc(C(F)(F)F)cc1 [Compound 56, N-[(1R)-1-cyclobutyl-2-hydroxyethyl]-6-methyl-9-[4-(trifluoromethyl)phenyl]-9H-carbazole-3-carboxamide] | 10 to 100 nM | 0.001 to 0.1 µM
Cc1ccc2c(c1)c1cc(C(=O)N[C@H]3COC[C@@H]3O)ccc1n2-c1ccc(C(F)(F)F)cc1 [Compound 57, N-[(3S,4R)-4-hydroxyoxolan-3-yl]-6-methyl-9-[4-(trifluoromethyl)phenyl]-9H-carbazole-3-carboxamide] | 100 to 1000 nM | 0.1 to 1 µM
Cc1ccc2c(c1)c1cc(C(=O)N[C@H](c3ccccc3)[C@H](C)O)ccc1n2-c1ccc(C(F)(F)F)cc1 [Compound 58, N-[(1R,2S)-2-hydroxy-1-phenylpropyl]-6-methyl-9-[4-(trifluoromethyl)phenyl]-9H-carbazole-3-carboxamide] | 100 to 1000 nM | 0.1 to 1 µM
Cc1ccc2c(c1)c1cc(C(=O)NCc3ccncc3)ccc1n2-c1ccc(C(F)(F)F)cc1 [Compound 59, 6-methyl-N-[(pyridin-4-yl)methyl]-9-[4-(trifluoromethyl)phenyl]-9H-carbazole-3-carboxamide] | 10 to 100 nM | 0.1 to 1 µM
COCCC(CO)NC(=O)c1ccc2c(c1)c1cc(C)ccc1n2-c1ccc(C(F)(F)F)cc1 (stereo not drawn) [Compound 61, N-(1-hydroxy-4-methoxybutan-2-yl)-6-methyl-9-[4-(trifluoromethyl)phenyl]-9H-carbazole-3-carboxamide] | 100 to 1000 nM | 0.1 to 1 µM
Cc1cc2c3cc(C(=O)O)ccc3n(-c3ccc(C(F)(F)F)cc3)c2cc1C [Compound 62, 6,7-dimethyl-9-[4-(trifluoromethyl)phenyl]-9H-carbazole-3-carboxylic acid] | 1 to 10 nM | 0.1 to 1 µM
Cc1ccc2c(c1)c1cc(C(=O)O)ccc1n2-c1ccc(OC(F)(F)F)cc1 [Compound 63, 6-methyl-9-[4-(trifluoromethoxy)phenyl]-9H-carbazole-3-carboxylic acid] | 1 to 10 nM | 1 to 10 µM
